≈ marks a conversion by molar mass, not a printed value.
Columns and labels:
E. coli ATCC 25922 = assay: CytoSPAR BLAST antibiotic susceptibility test; format: cell-based; conditions: for S, I, R: susceptible, intermediate, resistant category; for MIC: Escherichia coli, ATCC25922, Table 6, optimized BLAST, cutoff 0.8, read-out: MIC BLAST
Excerpt: (§1) The disclosed technology, which is referred to as the CytoSPAR BLAST (Bacteria Labeling Antibiotic Susceptibility Test) system, is used to quantitatively assess bacterial minimal inhibitory concentration of antibiotics for in vitro susceptibility testing. Used as an aid in diagnosis for clinicians in determining potential treatment options for patients suspected of having a microbial infection, BLAST is intended to determine susceptibility of microorganisms to the listed antibiotics (or other antimicrobials) according to manufacturer's standards. The system is intended for use with clinical isolates from liquid culture and colonies grown on agar (solid medium) or directly from urine samples. Certain implementations of BLAST determine antibiotic susceptibility for a wide range of bacteria obtained from various types of patient samples, including samples from individuals suffering from urinary tract infections. The disclosed technology includes a high-throughput assay that directly detects bacterial susceptibility to a library of frequently used antibiotics and covers both Gram-negative and Gram-positive bacteria.
(§2) The test incorporates a non-canonical amino acid (ncAA) into newly produced proteins. The incorporated ncAA includes a reactive group which allows a specific modification and detection of the living bacteria. The assay involves bacterial incorporation of the ncAA, a chemical reaction between a reactive group and a fluorophore-tagged ligand, and detection of the newly fluorescent-tagged bacteria using a fluorescent plate reader or functionally similar device. The ncAA is added to bacterial growth media and is incorporated into newly synthesized bacterial proteins. The reactive groups on the ncAA are not naturally found in bacteria and act as a specific reactive group for bacteria undergoing active protein synthesis. […] The entire process is performed in a microtiter filter plate for high-throughput scale-up. Alternatively, a normal 96-well plate can also be used in which case centrifugation is used to wash the plate instead of filtration.
(§3) In an example embodiment, bacterial samples are first diluted and incubated in acclimatization media. After treatment with one or more antimicrobials, the ncAA is added and is taken up by living bacteria during protein biosynthesis in a process called labeling. […] The Click-Chemistry reaction between the alkyne group of the ncAA and the azide group of the fluorophore-tagged ligand requires the presence of copper in the reduced state-copper (I). In other implementations, the functional groups of the click chemistry reaction can be changed so that the ncAA has the azide group and the dye has the alkyne group. […] Other reducing agents may be used in the BLAST assay, for example, aldoses (sugars) including glyceraldehyde, glucose, and ribose to replace sodium ascorbate. Likewise, alternate chelators may be used (e.g., histidine in place of BTTAA). In some implementations, metal-free click chemistry reactions are performed without using copper.
(§4) Using the BLAST system, tests can be performed on isolates or direct urine samples. Isolates may be from urine, blood, or other body fluids. Isolated bacteria may be either Gram-positive or Gram-negative. In an example implementation, living bacterial samples in acclimatization media (Buffer A) are distributed in a microtiter filter plate, wherein certain predetermined wells include antibiotics of interest at different concentrations. These antibiotics are arrayed with increasing concentrations in adjacent wells so that the bacterial response can be measured against each specific concentration. The response is measured quantitatively, and a value that corresponds to the ability of the bacteria to metabolize and grow is measured.

S. aureus ATCC 29213 [1] = assay: CytoSPAR BLAST antibiotic susceptibility test; format: cell-based; conditions: S. aureus ATCC 29213; for S, I, R: susceptible, intermediate, resistant category; for MIC: Staphylococcus aureus, ATCC29213, Table 6, optimized BLAST, cutoff 0.8, read-out: MIC BLAST
Excerpt: as §1, §2, §3, §4

S. aureus ATCC 29213 [2] = conditions: CLSI M100-Ed34E; cited from earlier work

Compound: CO/N=C(\C(=O)N[C@@H]1C(=O)N2C(C(=O)O)=C(CSc3nc(=O)c(=O)[nH]n3C)CS[C@H]12)c1csc(N)n1 [Ceftriaxone, ceftriaxone]
- S, I, R (E. coli ATCC 25922): Susceptible
- S, I, R (S. aureus ATCC 29213 [1]): Susceptible
- MIC (S. aureus ATCC 29213 [1]): 1 µg/mL (≈ 1.8 µM)

Compound: C[C@@H](O)[C@H]1C(=O)N2C(C(=O)O)=C(S[C@@H]3CN[C@H](C(=O)N(C)C)C3)[C@H](C)[C@H]12 [Meropenem, meropenem]
- S, I, R (E. coli ATCC 25922): Susceptible
- S, I, R (S. aureus ATCC 29213 [1]): Susceptible

Compound: CO[C@@]1(NC(=O)Cc2cccs2)C(=O)N2C(C(=O)O)=C(COC(N)=O)CS[C@@H]21 [Cefoxitin, cefoxitin]
- MIC (E. coli ATCC 25922): 4 µg/mL (≈ 9.36 µM)
- S, I, R (E. coli ATCC 25922): Susceptible
- S, I, R (S. aureus ATCC 29213 [1]): Susceptible
- MIC (S. aureus ATCC 29213 [1]): 1 µg/mL (≈ 2.34 µM)

Compound: CO/N=C(\C(=O)N[C@@H]1C(=O)N2C(C(=O)O)=C(COC(N)=O)CS[C@H]12)c1ccco1 [Cefuroxime, cefuroxime]
- MIC CLSI QC Range (S. aureus ATCC 29213 [2]): 0.5 to 2 µg/mL
- MIC (E. coli ATCC 25922): 4 µg/mL (≈ 9.43 µM)
- S, I, R (E. coli ATCC 25922): Susceptible
- S, I, R (S. aureus ATCC 29213 [1]): Susceptible
- MIC (S. aureus ATCC 29213 [1]): 0.25 µg/mL (≈ 0.589 µM)
